Patent publication US6737383B1, “Herbicidal oxadiazolidines” (priority 1999, dated 2004)

Experiments:
[1] = system: smallflower flatsedge; assay: Test B flood test smallflower flatsedge; assay type: in vivo, Cyperus difformis
In short: (§1)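 Plants were grown to the 2-leaf stage before treatment with test chemical, then held in a greenhouse for twelve to sixteen days. Injury was visually rated against untreated controls on a 0–10 scale, where 0 is no effect and 10 is complete control.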

[2] = system: rape; assay: Test B pre/postemergence rape; assay type: in vivo, Brassica napus
In short: (§2)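 Herbicidal effect was estimated by eye on a ten-point control scale after plants spent twelve to sixteen days in a greenhouse following soil or foliar treatment. Foliar sprays targeted plants at one to four leaves; all doses were formulated in a non-phytotoxic solvent with surfactant.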

[3] = system: surinam grass; assay: Test B pre/postemergence surinam grass; assay type: in vivo, Brachiaria decumbens
In short: as §2

[4] = system: wheat; assay: Test B pre/postemergence wheat; assay type: in vivo, Triticum aestivum
In short: as §2

[5] = system: morningglory; assay: Test B pre/postemergence morningglory; assay type: in vivo, Ipomoea hederacea
In short: as §2

[6] = system: bamyardgrass; assay: Test B flood test barnyardgrass; assay type: in vivo, Echinochloa crus-galli
In short: as §1

[7] = system: cocklebur; assay: Test B pre/postemergence cocklebur; assay type: in vivo, Xanthium strumarium
In short: as §2

[8] = system: giant foxtail; assay: Test B pre/postemergence giant foxtail; assay type: in vivo, Setaria faberii
In short: as §2

[9] = system: blackgrass; assay: Test B pre/postemergence blackgrass; assay type: in vivo, Alopecurus myosuroides
In short: as §2

[10] = system: purple nutsedge; assay: Test B pre/postemergence purple nutsedge; assay type: in vivo, Cyperus rotundus
In short: as §2

[11] = system: bedstraw; assay: Test B pre/postemergence bedstraw; assay type: in vivo, Galium aparine
In short: as §2

[12] = system: duck salad; assay: Test B flood test duck salad; assay type: in vivo, Heteranthera limosa
In short: as §1

[13] = system: wild oat; assay: Test B pre/postemergence wild oat; assay type: in vivo, Avena fatua
In short: as §2

[14] = system: sugar beet; assay: Test B pre/postemergence sugar beet; assay type: in vivo, Beta vulgaris
In short: as §2

[15] = system: soybean; assay: Test B pre/postemergence soybean; assay type: in vivo, Glycine max
In short: as §2

[16] = system: pigweed; assay: Test B pre/postemergence pigweed; assay type: in vivo, Amaranthus retroflexus
In short: as §2

[17] = Postemergence (flood test species), Rate 125 g/ha, scale of 0 to 10 where 0 is no effect and 10 is complete control
[18] = Rate 62 g/ha, Postemergence section, flood test species, scale of 0 to 10 where 0 is no effect and 10 is complete control
[19] = Rate 250 g/ha, Postemergence (flood test), scale 0 to 10, 0 is no effect, 10 is complete control
[20] = Rate 500 g/ha, listed under Postemergence (flood test species), scale 0 to 10
[21] = Postemergence, Rate 125 g/ha, scale of 0 to 10 where 0 is no effect and 10 is complete control
[22] = Preemergence, Rate 62 g/ha, scale 0 to 10 (0 no effect, 10 complete control)
[23] = Preemergence, Rate 125 g/ha, 0 is no effect, 10 is complete control
[24] = Preemergence, Rate 250 g/ha, scale 0 to 10, 0 is no effect, 10 is complete control
[25] = Preemergence, Rate 500 g/ha, scale 0 to 10 (0 no effect, 10 complete control)
[26] = Rate 62 g/ha, Postemergence, scale of 0 to 10 where 0 is no effect and 10 is complete control
[27] = Rate 250 g/ha, Postemergence, scale 0 to 10, 0 is no effect, 10 is complete control
[28] = Rate 500 g/ha, Postemergence, scale 0 to 10

In the case of `C=CCn1c(=O)on(C(=O)N(c2ccc(F)cc2F)C(C)C)c1=O` [Compound 151], the “S. Flatsedge plant response rating” value [1, 17] is reported as 0, the “S. Flatsedge plant response rating” value [1, 18] is reported as 0 and the “Plant response rating, S. Flatsedge” value [1, 19] is reported as 0. The “S. Flatsedge plant response rating” value [1, 20] was 8, the “Rape plant response rating” value [2, 21] was 0 and the “Rape plant response rating” value [2, 22] was 2. For the same molecule, the “Rape plant response rating (0 to 10 scale)” value [2, 23] was 8, the “Rape plant response rating” value [2, 24] was 10 and the “Rape plant response rating” value [2, 25] was 10. For the same molecule, the “Rape plant response rating” value [2, 26] was 0, the “Plant response rating, Rape” value [2, 27] was 0 and the “Rape plant response rating” value [2, 28] was 2. The “B. signalgrass plant response rating” value [3, 21] was 4, the “B. signalgrass plant response rating” value [3, 22] was 4 and the “B. signalgrass plant response rating” value [3, 24] was 5. For the same molecule, the “B. signalgrass plant response rating” value [3, 25] was 7, the “B. signalgrass plant response rating” value [3, 26] was 3 and the “Plant response rating, B. signalgrass” value [3, 27] was 6. For the same molecule, the “B. signalgrass plant response rating” value ([3]; Rate 500 g/ha, Postemergence, scale of 0 to 10 where 0 is no effect and 10 is complete control) was 7, the “Wheat plant response rating” value [4, 22] was 2 and the “Wheat plant response rating (0 to 10 scale)” value [4, 23] was 2. The “Wheat plant response rating” value [4, 24] was 4, the “Wheat plant response rating” value [4, 25] was 5 and the “Wheat plant response rating” value [4, 26] was 0. The “Plant response rating, Wheat” value [4, 27] was 4, the “Wheat plant response rating” value [4, 28] was 8 and the “Morningglory plant response rating” value [5, 22] was 0. For the same molecule, the “Morningglory plant response rating (0 to 10 scale)” value [5, 23] was 0, the “Morningglory plant response rating” value [5, 24] was 0 and the “Morningglory plant response rating” value [5, 25] was 0. For the same molecule, the “Morningglory plant response rating” value [5, 26] was 4, the “Plant response rating, Morningglory” value [5, 27] was 6 and the “Morningglory plant response rating” value [5, 28] was 6. The “Barnyardgrass plant response rating” value [6, 17] was 0, the “Barnyardgrass plant response rating” value [6, 18] was 0 and the “Plant response rating, Barnyardgrass” value [6, 19] was 0. The “Barnyardgrass plant response rating” value ([6]; Rate 500 g/ha, listed under Postemergence (flood test species), scale 0 to 10, 0 no effect, 10 complete control) was 8, the “Cocklebur plant response rating” value [7, 21] was 0 and the “Cocklebur plant response rating” value [7, 22] was 0. For the same molecule, the “Cocklebur plant response rating” value [7, 24] was 0, the “Cocklebur plant response rating” value [7, 25] was 0 and the “Cocklebur plant response rating” value [7, 26] was 0. The “Plant response rating, Cocklebur” value [7, 27] was 2, the “Cocklebur plant response rating” value [7, 28] was 2 and the “Giant foxtail plant response rating” value [8, 21] was 8. The “Giant foxtail plant response rating” value [8, 22] was 9, the “Giant foxtail plant response rating (0 to 10 scale)” value [8, 23] was 10 and the “Giant foxtail plant response rating” value [8, 24] was 10. For the same molecule, the “Giant foxtail plant response rating” value [8, 25] was 10, the “Giant foxtail plant response rating” value [8, 26] was 7 and the “Plant response rating, Giant foxtail” value [8, 27] was 8. The “Giant foxtail plant response rating” value [8, 28] was 8, the “Blackgrass plant response rating” value [9, 21] was 8 and the “Blackgrass plant response rating” value [9, 22] was 8. For the same molecule, the “Blackgrass plant response rating (0 to 10 scale)” value [9, 23] was 9, the “Blackgrass plant response rating” value [9, 24] was 10 and the “Blackgrass plant response rating” value [9, 25] was 10. The “Blackgrass plant response rating” value [9, 26] was 8, the “Plant response rating, Blackgrass” value [9, 27] was 8 and the “Blackgrass plant response rating” value [9, 28] was 9. For the same molecule, the “Nutsedge plant response rating” value [10, 21] was 3, the “Nutsedge plant response rating” value [10, 22] was 0 and the “Nutsedge plant response rating (0 to 10 scale)” value [10, 23] was 0. For the same molecule, the “Nutsedge plant response rating” value [10, 24] was 0, the “Nutsedge plant response rating” value [10, 25] was 2 and the “Nutsedge plant response rating” value [10, 26] was 2. For the same molecule, the “Plant response rating, Nutsedge” value [10, 27] was 5, the “Nutsedge plant response rating” value [10, 28] was 5 and the “Bedstraw plant response rating” value [11, 21] was 3. The “Bedstraw plant response rating” value [11, 22] was 0, the “Bedstraw plant response rating (0 to 10 scale)” value [11, 23] was 0 and the “Bedstraw plant response rating” value [11, 24] was 0. The “Bedstraw plant response rating” value [11, 25] was 0, the “Bedstraw plant response rating” value [11, 26] was 3 and the “Plant response rating, Bedstraw” value [11, 27] was 4. For the same molecule, the “Bedstraw plant response rating” value ([11]; Rate 500 g/ha, Postemergence, scale 0 to 10, 0 no effect, 10 complete control) was 7, the “Ducksalad plant response rating” value [12, 17] was 0 and the “Ducksalad plant response rating” value [12, 18] was 0. For the same molecule, the “Plant response rating, Ducksalad” value [12, 19] was 0, the “Ducksalad plant response rating” value [12, 20] was 2 and the “Wild oats plant response rating” value [13, 22] was 8. For the same molecule, the “Wild oats plant response rating (0 to 10 scale)” value [13, 23] was 9, the “Wild oats plant response rating” value [13, 24] was 10 and the “Wild oats plant response rating” value [13, 25] was 10. For the same molecule, the “Plant response rating, Wild oats” value [13, 27] was 6, the “Wild oats plant response rating” value [13, 28] was 8 and the “Sugarbeets plant response rating” value [14, 21] was 3. For the same molecule, the “Sugarbeets plant response rating” value [14, 22] was 1, the “Sugarbeets plant response rating (0 to 10 scale)” value [14, 23] was 8 and the “Sugarbeets plant response rating” value [14, 24] was 10. The “Sugarbeets plant response rating” value [14, 25] was 10, the “Sugarbeets plant response rating” value [14, 26] was 2 and the “Plant response rating, Sugarbeets” value [14, 27] was 3. The “Sugarbeets plant response rating” value [14, 28] was 3, the “Soybean plant response rating” value [15, 21] was 4 and the “Soybean plant response rating” value [15, 22] was 0. For the same molecule, the “Soybean plant response rating (0 to 10 scale)” value [15, 23] was 0, the “Soybean plant response rating” value [15, 24] was 3 and the “Soybean plant response rating” value [15, 25] was 7. The “Soybean plant response rating” value [15, 26] was 3, the “Plant response rating, Soybean” value [15, 27] was 4 and the “Soybean plant response rating” value [15, 28] was 4. The “Redroot pigweed plant response rating” value [16, 21] was 3, the “Redroot pigweed plant response rating” value [16, 22] was 10 and the “Redroot pigweed plant response rating (0 to 10 scale)” value [16, 23] was 10. For the same molecule, the “Redroot pigweed plant response rating” value [16, 24] was 10, the “Redroot pigweed plant response rating” value [16, 25] was 10 and the “Redroot pigweed plant response rating” value [16, 26] was 3. For the same molecule, the “Plant response rating, Redroot pigweed” value [16, 27] was 5 and the “Redroot pigweed plant response rating” value [16, 28] was 7.
